Calls of active or inactive are those of the source. No cut-off for these calls is given here.
Columns and labels:
NCI-H1975 = assay: Anticancer activity against human NCI-H1975 cells harboring EGFR L858R/T790M mutant assessed as reduction in cell viability measured after 72 hrs by MTT assay; type: functional, cell-based; details: NCI-H1975, 72 h
HCC827 = assay: Anticancer activity against human HCC827 cells harboring EGFR E746_A750 del mutant assessed as reduction in cell viability measured after 72 hrs by MTT assay; type: functional, cell-based; details: HCC827, 72 h
A549 [1] = assay: Anticancer activity against human A549 cells assessed as reduction in cell viability measured after 72 hrs by MTT assay; type: functional, cell-based; details: A549, 72 h
A549 [2] = assay: Anticancer activity against human A549 cells overexpressing wild type EGFR assessed as reduction in cell viability measured after 72 hrs by MTT assay; type: functional, cell-based; details: A549, 72 h
[3] = test system: Epidermal growth factor receptor (Homo sapiens), P00533 [UNDEFINED MUTATION]; assay: Inhibition of EGFR E746_A750 del mutant in human HCC827 cells assessed as inhibition of Akt phosphorylation at 0.01 to 1 uM by western blot analysis; type: cell-based; details: dose 0.01-1 µM
NSCLC [4] = assay: Induction of apoptosis in human NSCLC assessed as early apoptotic cells at IC50 measured after 24 to 48 hrs by AnnexinV-FITC/PI staining based flow cytometry (reference value: 2.1%); type: functional; details: time 24-48 hrs
[5] = Cytotoxicity against human BEAS-2B cells assessed as reduction in cell viability measured after 72 hrs by MTT assay; type: toxicity, cell-based
NSCLC [6] = assay: Induction of apoptosis in human NSCLC assessed as late apoptotic cells at IC50 measured after 24 to 48 hrs by AnnexinV-FITC/PI staining based flow cytometry (reference value: 1.1%); type: functional; details: time 24-48 hrs
[7] = biological target: Epidermal growth factor receptor (Homo sapiens, UniProt P00533, L858R/T790M); assay: Inhibition of EGFR L858R/T790M mutant (unknown origin) using poly (Glu,Tyr) as substrate incubated for 40 mins in presence of ATP by Kinase-Glo luminescent analysis
Chain of Epidermal growth factor receptor (P00533 25-1210 T790M/L858R limits assumed): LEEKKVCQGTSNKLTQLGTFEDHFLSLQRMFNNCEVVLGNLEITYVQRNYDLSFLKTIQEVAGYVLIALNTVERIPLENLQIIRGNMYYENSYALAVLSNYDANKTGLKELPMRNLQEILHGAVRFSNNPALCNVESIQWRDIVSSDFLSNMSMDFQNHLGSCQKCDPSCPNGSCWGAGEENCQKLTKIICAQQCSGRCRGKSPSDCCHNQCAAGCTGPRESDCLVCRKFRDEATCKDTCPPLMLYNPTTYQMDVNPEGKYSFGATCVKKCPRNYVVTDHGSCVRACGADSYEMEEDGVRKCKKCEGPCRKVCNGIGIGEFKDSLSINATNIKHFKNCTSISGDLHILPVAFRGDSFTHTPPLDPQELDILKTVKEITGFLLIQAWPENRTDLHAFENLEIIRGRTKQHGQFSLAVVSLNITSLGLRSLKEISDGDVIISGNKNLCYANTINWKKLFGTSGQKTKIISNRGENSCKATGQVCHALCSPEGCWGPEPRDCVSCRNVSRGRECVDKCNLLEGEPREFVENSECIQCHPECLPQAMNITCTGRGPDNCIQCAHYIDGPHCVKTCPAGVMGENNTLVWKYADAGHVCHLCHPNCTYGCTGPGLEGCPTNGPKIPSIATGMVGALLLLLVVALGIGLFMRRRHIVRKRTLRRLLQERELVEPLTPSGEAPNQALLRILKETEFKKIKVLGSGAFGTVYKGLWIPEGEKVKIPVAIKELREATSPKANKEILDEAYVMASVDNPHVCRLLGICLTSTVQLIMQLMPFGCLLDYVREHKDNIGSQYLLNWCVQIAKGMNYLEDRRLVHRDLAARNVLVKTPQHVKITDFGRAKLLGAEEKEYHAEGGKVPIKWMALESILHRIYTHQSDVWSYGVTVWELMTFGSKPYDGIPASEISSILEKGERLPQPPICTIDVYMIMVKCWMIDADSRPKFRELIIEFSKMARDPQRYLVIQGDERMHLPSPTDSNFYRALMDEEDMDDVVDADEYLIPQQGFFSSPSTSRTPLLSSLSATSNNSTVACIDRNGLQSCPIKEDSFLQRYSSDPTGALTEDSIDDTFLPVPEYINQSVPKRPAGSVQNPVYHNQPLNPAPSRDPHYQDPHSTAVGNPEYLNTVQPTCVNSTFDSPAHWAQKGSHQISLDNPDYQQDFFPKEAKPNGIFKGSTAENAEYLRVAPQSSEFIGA

Chain of Epidermal growth factor receptor (Homo sapiens), P00533 [UNDEFINED MUTATION] (P00533 whole entry, looked up, stated change not applied): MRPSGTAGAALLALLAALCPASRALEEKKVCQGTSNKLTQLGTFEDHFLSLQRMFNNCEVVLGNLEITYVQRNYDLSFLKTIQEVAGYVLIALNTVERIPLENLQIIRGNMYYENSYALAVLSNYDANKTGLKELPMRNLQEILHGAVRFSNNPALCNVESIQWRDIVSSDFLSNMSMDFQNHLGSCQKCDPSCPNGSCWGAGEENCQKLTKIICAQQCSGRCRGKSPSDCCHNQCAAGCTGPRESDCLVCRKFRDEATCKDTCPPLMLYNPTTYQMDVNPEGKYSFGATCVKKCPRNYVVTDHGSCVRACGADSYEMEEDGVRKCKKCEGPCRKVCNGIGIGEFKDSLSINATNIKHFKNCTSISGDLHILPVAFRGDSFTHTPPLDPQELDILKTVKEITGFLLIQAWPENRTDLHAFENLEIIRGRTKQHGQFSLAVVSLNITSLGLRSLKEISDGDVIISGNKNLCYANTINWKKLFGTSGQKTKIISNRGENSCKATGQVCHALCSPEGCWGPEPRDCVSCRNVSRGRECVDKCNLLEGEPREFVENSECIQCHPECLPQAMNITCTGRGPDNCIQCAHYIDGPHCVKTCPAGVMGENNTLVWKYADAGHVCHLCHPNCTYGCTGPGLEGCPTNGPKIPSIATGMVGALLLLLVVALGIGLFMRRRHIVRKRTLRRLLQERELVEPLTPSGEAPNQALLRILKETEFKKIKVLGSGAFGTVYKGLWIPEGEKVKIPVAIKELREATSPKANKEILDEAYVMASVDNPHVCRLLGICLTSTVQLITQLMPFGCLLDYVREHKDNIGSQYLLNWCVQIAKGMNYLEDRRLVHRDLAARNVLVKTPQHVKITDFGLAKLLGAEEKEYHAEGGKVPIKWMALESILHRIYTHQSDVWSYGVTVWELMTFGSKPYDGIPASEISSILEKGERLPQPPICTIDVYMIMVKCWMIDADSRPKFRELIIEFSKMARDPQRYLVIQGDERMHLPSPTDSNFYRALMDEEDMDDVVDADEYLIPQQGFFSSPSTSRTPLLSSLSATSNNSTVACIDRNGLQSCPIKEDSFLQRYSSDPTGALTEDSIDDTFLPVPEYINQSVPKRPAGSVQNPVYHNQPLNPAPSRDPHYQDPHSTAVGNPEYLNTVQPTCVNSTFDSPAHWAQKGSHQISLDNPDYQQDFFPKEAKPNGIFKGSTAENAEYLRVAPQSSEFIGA

| Compound | IC50 (NCI-H1975) | IC50 (HCC827) | IC50 (A549 [1]) | IC50 (A549 [2]) | inhibition [3] | IC50 [7] | Activity (NSCLC [4]) | IC50 at 72 h [5] | Activity (NSCLC [6]) |
| --- | --- | --- | --- | --- | --- | --- | --- | --- | --- |
| CCOC(=O)c1c(-n2ccnc2)nc2ccc(Br)cc2c1N1CCN(c2ccccc2NS(=O)(=O)c2ccc(Cl)cc2)CC1 | 2.86 µM | 0.22 µM | 8.36 µM | 5.64 µM |  |  |  |  |  |
| CCOC(=O)c1c(-n2ccnc2)nc2ccc(Br)cc2c1N1CCN(c2ccccc2NS(=O)(=O)c2ccc(C#N)cc2)CC1 | 4.12 µM | 0.33 µM | 9.11 µM | 5.82 µM |  |  |  |  |  |
| CCOC(=O)c1c(-n2ccnc2)nc2ccc(Br)cc2c1N1CCN(c2ccccc2NS(=O)(=O)c2ccc(Br)cc2)CC1 | 2.86 µM | 0.22 µM | 8.22 µM | 5.02 µM |  |  |  |  |  |
| CCOC(=O)c1c(-n2ccnc2)nc2ccc(Br)cc2c1N1CCN(c2ccccc2NS(=O)(=O)C2CC2)CC1 | 7.16 µM | 0.67 µM | 11.1 µM | 7.84 µM |  |  |  |  |  |
| C=CC(=O)Nc1cc(Nc2nccc(-c3cn(C)c4ccccc34)n2)c(OC)cc1N(C)CCN(C)C [OSIMERTINIB] | […] | 0.004 µM | 2.67 µM | […] |  |  |  |  |  |
| CCOC(=O)c1c(-n2ccnc2)nc2ccc(Br)cc2c1N1CCN(c2ccccc2NS(=O)(=O)c2ccc(C(F)(F)F)cc2)CC1 | 0.21 µM | 0.01 µM | 2.99 µM | 0.99 µM | inactive | 0.138 µM | 26.8% | 85.1 µM | 4.2% |

More lines, main results first:

| IC50 (NCI-H1975) | IC50 (HCC827) | IC50 (A549 [1]) | IC50 (A549 [2]) | inhibition [3] | IC50 [7] | Compound | Activity (NSCLC [4]) | IC50 at 72 h [5] | Activity (NSCLC [6]) |
| --- | --- | --- | --- | --- | --- | --- | --- | --- | --- |
| 4.3 µM | 0.38 µM | 9.22 µM | 5.99 µM |  |  | CCOC(=O)c1c(-n2ccnc2)nc2ccc(Br)cc2c1N1CCN(c2ccccc2NS(=O)(=O)c2cccc(C#N)c2)CC1 |  |  |  |
| 4.8 µM | 0.38 µM | 10.2 µM | 6.11 µM |  |  | CCOC(=O)c1c(-n2ccnc2)nc2ccc(Br)cc2c1N1CCN(c2ccccc2NS(=O)(=O)c2ccc(OC)cc2)CC1 |  |  |  |
| 6.14 µM | 0.52 µM | 11.2 µM | 8.73 µM |  |  | CCOC(=O)c1c(-n2ccnc2)nc2ccc(Br)cc2c1N1CCN(c2ccccc2NC(=O)c2cccc(OC)c2OC)CC1 |  |  |  |
| 2.18 µM | 0.11 µM | 6.98 µM | 4.3 µM |  |  | CCOC(=O)c1c(-n2ccnc2)nc2ccc(Br)cc2c1N1CCN(c2ccccc2NC(=O)c2cc(F)ccc2I)CC1 |  |  |  |
| 13.1 µM | 0.97 µM | 16.8 µM | 11.5 µM |  |  | CCOC(=O)c1c(-n2ccnc2)nc2ccc(Br)cc2c1N1CCN(c2ccccc2N)CC1 |  |  |  |
| 2.82 µM | 0.16 µM | 8.58 µM | 4.92 µM |  |  | CCOC(=O)c1c(-n2ccnc2)nc2ccc(Br)cc2c1N1CCN(c2ccccc2NC(=O)c2cccc(Br)c2)CC1 |  |  |  |
| 2.81 µM | 0.17 µM | 8.32 µM | 4.88 µM |  |  | CCOC(=O)c1c(-n2ccnc2)nc2ccc(Br)cc2c1N1CCN(c2ccccc2NC(=O)c2ccccc2F)CC1 |  |  |  |

Source: ChEMBL document CHEMBL5385853, “Design, synthesis, and biological evaluation of novel quinoline derivatives as small molecule mutant EGFR inhibitors targeting resistance in NSCLC: In vitro screening and ADME predictions” (Eur J Med Chem, 2023)
